Results from US20160264593A1 (priority 2013, published 2016).
pIC50: −log10 of the molar value. Several values for one entry are separate records, joined by “and”; a condition that tells them apart may be missing. Equal values may be shown once. Read-outs that look alike come from different tables or passages of the source.

Tests used:
[1] = Pharmacokinetic study of 153 (and metabolite endothal) in SD rats, iv and po; plasma, liver, brain; assay type: in vivo
Experimental: The blood, liver and brain tissue samples were collected at predetermined times from rats. […] Compound were diluted shortly before use in 4% sodium bicarbonate for sterile injection (this is the standard pediatric solution of NaHCO3 with a pH of about 8.5).
Compound 153 was freshly prepared by diluting the drugs shortly before use in 4% sodium bicarbonate for sterile injection (this is the standard pediatric solution of NaHCO3 with a pH of about 8.5). The final concentrations of 153 solutions were 0.25 mg/mL. The 153 solutions were administered via iv or po route at dose volume of 5 ml/kg according to the latest body weight. Compound 157 was freshly prepared by diluting the drugs shortly before use in 4% sodium bicarbonate for sterile injection (this is the standard pediatric solution of NaHCO3 with a pH of about 8.5). The final concentrations of […] solutions were 0.3 mg/mL. The 157 solutions were administered via iv or po route at dose volume of 5 ml/kg according to the latest body weight.
Twelve (12) female SD rats per group were dosed by iv with 153 or 157. The rats were fasted overnight prior to dosing, with free access to water. Foods were withheld for 2 hours post-dose. Blood, liver and brain tissue samples in two animals each group were collected at each time point, within 10% of the scheduled time for each time point. Two extra animals were used for analytic method development.
Blood (>0.3 mL) were collected via aorta abdominalis in anaesthetic animals into tubes containing heparin at 15 min, 1, 2, 6, 10 and 24 hours after iv administration. Liver and brain tissues were collected immediately after animal death. The liver and brain tissues were excised and rinsed with cold saline to avoid blood residual. Upon collection, each sample was placed on ice and the blood samples were subsequently centrifuged (4° C., 11000 rpm, 5 min) to separate plasma. The obtained plasma, liver and brain tissue samples were stored at −70° C. until LC-MS/MS analysis.
Two (2) female SD rats per group were dosed by po with 153 or 157. The rats were fasted overnight prior to dosing, with free access to water. Foods were withheld for 2 hours post-dose. Blood samples (>0.3 mL) were collected via aorta abdominalis in anaesthetic animals into tubes containing heparin at 30 min, 1, 2, 6, 10 and 24 hours after po administration.
To each sample, 20 μL IS-D (for blank samples, 20 μL acetonitrile:water (1:1) was added) and 300 μl acetonitrile was added. The sample mixture was vortexed for approximately 3 min. After centrifugation at 10000 rpm for 5 min at 4° C., 100 μL of the upper layer was transferred to a new tube and added 200 μL 0.4% formic acid in water (pH 6.0). The mixture was vortexed for approximately 3 min before injected onto the LC/MS/MS system for analysis.
On the day of the assay, the frozen liver and brain samples were thawed unassisted at room temperature. An about 200 mg weighed sample of each thawed tissue was placed into a plastic tube with water (0.6 mL) to facilitate homogenization. Tissue processing was conducted using a homogenizer for approximately 1 min, 200 μl homogenate was transferred into a fresh Eppendorf tube. To each tube, 50 μL IS-D was added and mixed. Then 600 μl acetonitrile was added and the sample mixture was vortexed for approximately 3 min. After centrifugation at 10000 rpm for 5 min at 4° C., 400 μL of the upper layer was transferred to a new tube and evaporate the supernatant to dryness at 35° C. Reconstitute the residue with 200 μL of 0.4% formic acid in water (pH6.0), and vortex for 3 min, submit for LC-MS/MS analysis.
Frozen unknown plasma samples were completely thawed at room temperature and vortexed thoroughly. With a pipette, 50 μL of plasma was transferred into a 2.0 mL Eppendorf tube. 50 μL of 0.1N HCl and 800 μL ethyl acetate were added into each sample. The sample mixture was vortexed for approximately 3 min.

[2] = iv daily for 5 days, phase I; cited from earlier work
[3] = test system: glioblastoma (U-87) cells; test: WST cell viability assay, U-87 MG; assay type: cell-based; conditions: for pIC50: read-out: IC50 U-87 MG; for cytotoxicity against glioblastoma cells (statement): WST, U-87
lung cancer (A549) cells = test: WST cell viability assay, A549; assay type: cell-based; conditions: for pIC50: WST-20131028, read-out: IC50 A549; for cytotoxicity against lung cancer cells (statement): WST
[4] = test system: breast cancer (2LMP) cells
Source text: (§2) IC50 values were obtained for cytotoxicity against breast cancer (2LMP), glioblastoma (U-87) and lung cancer (A549) cells (See Table 5 and FIGS. 3-5).

[5] = test system: breast cancer (2LMP) cells; test: WST cell viability assay, 2LMP
Source text: as §2

PP2A [6] = test: PP2A immunoprecipitation phosphatase assay on mouse liver lysate, OA added to the reaction (positive control); assay type: biochemical, Balb/c mice
Experimental: (§1) Coomassie (Bradford) Protein Assay Kit (Pierce); PP2A Immunoprecipitation Phosphatase Assay Kit (Millipore); Lysate preparation for low endogenous phosphate: 20 mM imidazole-HCl, 2 mM EDTA, 2 mM EGTA, 1 mM PMSF, 1 mM benzamidine, 10 ug/ml each of aprotinin, leupeptin, antipain, soybean trypsin inhibitor; Normal Mouse IgG (Millipore); Okadaic acid (OA) (Tocris); DMSO (Sigma).
1. Mouse brain or liver was homogenized using lysis buffer (25 g/L), centrifuged at 12000 g for 10 minutes at […], and the supernatants were collected. 2. The protein was quantitated, and 240 μg of mouse brain or liver lysate was taken to assay phosphatase activity. 3. Added 4 μg of Anti-PP2A or 4 μg Normal mouse IgG as an IP control. 4. Added 30 μl Protein A agarose slurry. 5. Brought volume to 500 μl with pNPP Ser/Thr Assay Buffer. 6. Incubated for 2 h at 4° C. with constant rocking. 7. Washed beads 3 times with 700 μl TBS, followed by one wash with 500 μl Ser/Thr Assay Buffer. 8. Added 20 μl of Ser/Thr Assay Buffer. (In order to determine the linear range of PP2A amount for enzymatic reaction, different amounts of precipitated PP2A were used for subsequent phosphatase assay.) 9. Added 60 μl of diluted phosphopeptide (final concentration would be 750 μM) 10. Added OA (5 μM & 5 nM) or DMSO to the reaction system. 11. […]
14. […] Measured absorbance at a wavelength between […] in a microliter plate reader.

PP2A [7] = test: PP2A immunoprecipitation phosphatase assay on mouse brain lysate, OA added to the reaction (positive control); assay type: biochemical, Balb/c mice
Experimental: as §1
1. Mouse brain or liver was homogenized using lysis buffer (25 g/L), centrifuged at 12000 g for 10 minutes at […], and the supernatants were collected. 2. The protein was quantitated, and 240 μg of mouse brain or liver lysate was taken to assay phosphatase activity. 3. Added 4 μg of Anti-PP2A or 4 μg Normal mouse IgG as an IP control. 4. Added 30 μl Protein A agarose slurry. 5. Brought volume to 500 μl with pNPP Ser/Thr Assay Buffer. 6. Incubated for 2 h at 4° C. with constant rocking. 7. Washed beads 3 times with 700 μl TBS, followed by one wash with 500 μl Ser/Thr Assay Buffer. 8. Added 20 μl of Ser/Thr Assay Buffer. (In order to determine the linear range of PP2A amount for enzymatic reaction, different amounts of precipitated PP2A were used for subsequent phosphatase assay.) 9. Added 60 μl of diluted phosphopeptide (final concentration would be 750 μM) 10. Added OA (5 μM & 5 nM) or DMSO to the reaction system. 11. Incubated for 10 minutes at 30° C. in a shaking incubator. 12. Centrifuged briefly and transferred 25 μl into each well of the microliter plate to be used.
13. Added 100 μl of Malachite Green Phosphate Detection Solution AB.
14. Let color develop for 10-15 minutes at RT. 15. Measured absorbance at a wavelength between […] in a microliter plate reader.

[8] = End. in plasma after 153 1.25 mg/kg IV, Mean
[9] = End. in plasma after 153 1.25 mg/kg IV, rat 1
[10] = End. in plasma after 153 1.25 mg/kg IV, rat 2
[11] = End. in plasma after 153 1.25 mg/kg PO, Mean
[12] = End. in plasma after 153 1.25 mg/kg PO, rat 1
[13] = End. in plasma after 153 1.25 mg/kg PO, rat 2
[14] = Endothal in liver after single iv 153 1.25 mg/kg, Mean
[15] = Endothal in liver after single iv 153 1.25 mg/kg, rat 1
[16] = Endothal in liver after single iv 153 1.25 mg/kg, rat 2
[17] = read-out: IC50 2LMP, WST-20131015 (first value of the cell)
[18] = read-out: IC50 2LMP, WST-20131025 (second value of the cell)
[19] = 5 nM OA in the reaction, brain sample M1-1
[20] = 5 μM OA in the reaction, brain sample M1-1

## O=C(O)C1C2CCC(O2)C1C(=O)O (stereo not shown) [End.]
[1]; [8]
  AUC: 378 ng·h/mL
  AUC0-∞: 600 ng·h/mL
  Cmax: 70.5 ng/mL
  MRT (0-t): 3.34 h
  T1/2: 5.2 h
  Tmax: 1.13 h
[1]; [9]
  AUC: 482 ng·h/mL
  AUC0-∞: 618 ng·h/mL
  Cmax: 77.1 ng/mL
  MRT (0-t): 3.93 h
  T1/2: 4.37 h
  Tmax: 2 h
[1]; [10]
  AUC: 274 ng·h/mL
  AUC0-∞: 581 ng·h/mL
  Cmax: 63.8 ng/mL
  MRT (0-t): 2.74 h
  T1/2: 6.02 h
  Tmax: 0.25 h
[1]; [11]
  AUC: 179 ng·h/mL
  AUC0-∞: 364 ng·h/mL
  Cmax: 46.9 ng/mL
  MRT (0-t): 2.76 h
  T1/2: 5.49 h
  Tmax: 0.75 h
[1]; [12]
  AUC: 189 ng·h/mL
  AUC0-∞: 395 ng·h/mL
  Cmax: 53.6 ng/mL
  MRT (0-t): 2.8 h
  T1/2: 5.53 h
  Tmax: 1 h
[1]; [13]
  AUC: 169 ng·h/mL
  AUC0-∞: 333 ng·h/mL
  Cmax: 40.2 ng/mL
  MRT (0-t): 2.72 h
  T1/2: 5.45 h
  Tmax: 0.5 h
[1]; [14]
  MRT (0-t): 3.24 h
  T1/2: 2.79 h
  Tmax: 2 h
[1]; [15]
  T1/2: 3 h
  Tmax: 2 h
[1]; [16]
  MRT (0-t): 3.43 h
  T1/2: 2.57 h
  Tmax: 2 h

## C[C@@](O)(/C=C/[C@H]1CC=CC(=O)O1)[C@@H](C[C@@H](O)\C=C/C=C\C=C\CO)OP(=O)(O)O [fostriecin]
[2]
  dose limiting toxicity: not achieved
  major toxicities: reversible non-cumulative increases in serum creatinine and hepatic enzymes

## CCCCC/C=C/C/C=C/CCCCCCCCOC(=O)C1C2CCC(O2)C1C(=O)N1CCN(C)CC1 (stereo not shown) [Compound 158, 3-(4-Methylpiperazine-1-carbonyl)-7-oxa-bicyclo [2,2,1] heptane-2-carboxylic acid linoleyl ester]
[3]; Homo sapiens, U-87 MG, WST-20131017 (first value of the cell)
  pIC50: 4.82
[3]; Homo sapiens, U-87 MG, WST-20131024 (second value of the cell)
  pIC50: 5.08
[3]
  cytotoxicity against glioblastoma cells (statement): cytotoxic
Lung cancer (A549) cells; Homo sapiens, A549
  pIC50: 5.06
Lung cancer (A549) cells; A549
  cytotoxicity against lung cancer cells (statement): cytotoxic
[4]
  cytotoxicity against breast cancer cells (statement): cytotoxic
  cytotoxicity relative to 100 (statement): increased cytotoxicity relative to 100
[5]; [17]
  pIC50: 5.04
[5]; [18]
  pIC50: 4.89

## C=C1[C@@H](O)[C@@H]2O[C@]3(CC[C@H](/C=C/[C@@H](C)[C@@H]4CC(C)=C[C@@]5(O[C@H](C[C@@](C)(O)C(=O)O)CC[C@H]5O)O4)O3)CC[C@H]2O[C@@H]1[C@@H](O)C[C@H](C)[C@H]1O[C@@]2(CCCCO2)CC[C@H]1C [OA, Okadaic acid]
PP2A [6]
  activity of PP2A in livers, positive control (statement): significantly inhibited
PP2A [7]; [19]
  Average Conc.: 270.60
  Average Relative Activity (vehicle = 100): 12.46
  Conc. (phosphate, single reading): 282.72 and 271.21
  Mean Conc.: 276.96
  Mean Conc. less IgG blank: 270.60
  Relative Conc.: 0.12
  Relative PP2A Activity (vehicle = 100): 12.46
PP2A [7]; [20]
  Average Conc.: −5.54
  Average Relative Activity (vehicle = 100): −0.38
  Mean Conc.: 0.82
  Mean Conc. less IgG blank: −5.54
  Relative Conc.: 0.00
  Relative PP2A Activity (vehicle = 100): −0.38
PP2A [7]; OA added to the reaction
  activity of PP2A in brains, positive control (statement): significantly inhibited

## CCCCCCCCCCCCCCCCCOC(=O)C1C2CCC(O2)C1C(=O)N1CCN(C)CC1 (stereo not shown) [Compound 159]
[3]
  cytotoxicity against glioblastoma cells (statement): cytotoxic
[3]; WST-20131017 (first value of the cell)
  pIC50: 5.27
[3]; WST-20131024 (second value of the cell)
  pIC50: 5.29
Lung cancer (A549) cells; A549
  cytotoxicity against lung cancer cells (statement): cytotoxic
Lung cancer (A549) cells
  pIC50: 5.33
[5]; WST, 2LMP
  cytotoxicity against breast cancer cells (statement): cytotoxic
[5]; cell line not specified (2LMP, U-87, A549 tested)
  cytotoxicity relative to 100 (statement): increased cytotoxicity relative to 100
[5]; [17]
  pIC50: 5.33
[5]; [18]
  pIC50: 5.34
